Source: patent publication US20110028472A1, “THIENOPYRIMIDINES” (MERCK PATENT CESELLSCHAFT MIT BESCHRANKTER HAFTUNG, priority 2008, published 2011)

target: T1, GST-ALK5 (Homo sapiens, UniProt P36897); assay: In-vitro (enzyme) kinase assay, 384-well flashplate, inhibition of TGF-beta receptor I kinase; format: biochemical; conditions: 31.2 nM GST-ALK5, 439 nM GST-SMAD2, 3 mM ATP (33P-ATP), 30° C., 45 min
T1 sequence (P36897 34-503): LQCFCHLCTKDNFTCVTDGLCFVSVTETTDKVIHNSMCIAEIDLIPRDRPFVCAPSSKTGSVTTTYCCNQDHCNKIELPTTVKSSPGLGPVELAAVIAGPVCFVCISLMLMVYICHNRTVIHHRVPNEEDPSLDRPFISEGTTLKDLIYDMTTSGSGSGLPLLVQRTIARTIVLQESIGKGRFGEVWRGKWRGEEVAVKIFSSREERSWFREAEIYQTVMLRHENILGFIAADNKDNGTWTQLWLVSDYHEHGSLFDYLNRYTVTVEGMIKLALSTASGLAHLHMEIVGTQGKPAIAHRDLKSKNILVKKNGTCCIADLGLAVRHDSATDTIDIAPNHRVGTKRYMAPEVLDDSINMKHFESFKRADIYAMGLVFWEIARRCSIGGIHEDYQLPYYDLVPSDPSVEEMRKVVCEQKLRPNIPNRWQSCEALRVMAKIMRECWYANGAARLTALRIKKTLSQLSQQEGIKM
Procedure: In-Vitro (Enzyme) Assay for the Determination of the Efficacy of Inhibitors of the Inhibition of TGF-Beta-Promoted Effects Vermittelten Wirkungen
The kinase assay is carried out as 384-well flashplate assay. 31.2 nM of GST-ALK5, 439 nM of GST-SMAD2 and 3 mM of ATP (with 0.3 μCi of ^33P-ATP/well) are incubated in a total volume of 35 μl (20 mM of HEPES, 10 mM of MgCl, 5 mM of MnCl, 1 mM of DTT, 0.1% of BSA, pH 7.4) without or with test substance (5-10 concentrations) at 30° C. for 45 min. The reaction is stopped using 25 μl of 200 mM EDTA solution, filtered with suction at room temperature after 30 min, and the wells are washed with 3 times 100 μl of 0.9% NaCl solution. Radioactivity is measured in the TopCount. The IC50 values are calculated using RS1.

Structure (SMILES)	IC50
Cc1ccc(-c2nc(C3CC3)nc3sc(C(N)=O)c(N)c23)o1 [Compound A1, 5-amino-2-cyclopropyl-4-(5-methylfuran-2-yl)-thieno[2,3-d]pyrimidine-6-carboxamide]	0.048 µM
CSc1nc(-c2ccco2)c2c(N)c(C(N)=O)sc2n1 [Compound A8, 5-amino-4-furan-2-yl-2-methylsulfanylthieno[2,3-d]pyrimidine-6-carboxamide]	0.097 µM
CSc1nc(-c2ccc(C)o2)c2c(N)c(C(N)=O)sc2n1 [Compound A10, 5-Amino-4-(5-methylfuran-2-yl)-2-methyl-sulfanylthieno[2,3-d]pyrimidine-6-carboxamide]	0.046 µM
CC(C)(C)c1nc(-c2ccco2)c2c(N)c(C(N)=O)sc2n1 [Compound A25, 5-amino-2-tert-butyl-4-furan-2-ylthieno[2,3-d]pyrimidine-6-carboxamide]	0.087 µM
Cc1ccc(-c2nc(C(C)(C)C)nc3sc(C(N)=O)c(N)c23)o1 [Compound A26, 5-amino-2-tert-butyl-4-(5-methylfuran-2-yl)thieno[2,3-d]pyrimidine-6-carboxamide]	0.077 µM
CNc1nc(-c2ccc(C)o2)c2c(N)c(C(N)=O)sc2n1 [Compound A34, 5-amino-2-methylamino-4-(5-methylfuran-2-yl)thieno[2,3-d]pyrimidine-6-carboxamide]	0.036 µM
C=CCNc1nc(-c2ccc(C)o2)c2c(N)c(C(N)=O)sc2n1 [Compound A42, 2-allylamino-5-amino-4-(5-methylfuran-2-yl)-thieno[2,3-d]pyrimidine-6-carboxamide]	0.067 µM
C=CCNc1nc(-c2cccc(C)n2)c2c(N)c(C(N)=O)sc2n1 [Compound A50, 2-allylamino-5-amino-4-(6-methylpyridin-2-yl)thieno[2,3-d]pyrimidine-6-carboxamide]	0.022 µM
C#CCNc1nc(-c2cccc(C)n2)c2c(N)c(C(N)=O)sc2n1 [Compound A52, 5-amino-4-(6-methylpyridin-2-yl)-2-prop-2-ynylaminothieno[2,3-d]pyrimidine-6-carboxamide]	0.054 µM
Cc1cccc(-c2nc(NCCC#N)nc3sc(C(N)=O)c(N)c23)n1 [Compound A56, 5-amino-2-(2-cyanoethylamino)-4-(6-methylpyridin-2-yl)thieno[2,3-d]-pyrimidine-6-carboxamide]	0.079 µM
